# Patent US8575135B2 (Gilead Sciences, Inc., priority 2011, dated 2013)
# Like-named read-outs stand apart in the source and are kept apart here.
# Legend:
# Experiment in all cases: microbe, parasite or virus in culture
# [1] = test system: NS5A chimeric genotype 2a JFH-1 replicon with genotype 2b MD2b-1 strain NS5A gene (M31 present); type: cell-based, HCV; conditions: Hepatitis C virus
# Method in brief: (§1)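 Con1 1b replicons carrying 3a S52 or 4a ED43 NS5A with Pi-RLuc reporter were transiently transfected into Huh-Lunet cells; 2b MD2b-1 NS5A (M31) in JFH-1 2a backbone with RLuc-Neo, transient or stable.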
# [2] = test system: NS5A chimeric genotype 2a JFH-1 replicon with genotype 2a J6 strain NS5A gene (M31 present); type: cell-based, HCV; conditions: Hepatitis C virus
# [3] = test system: stable HCV 1b RLuc replicon cells (genotype 1b Con1 replicon); type: cell-based; conditions: Hepatitis C virus, read-out: 1b (nM)
# [4] = test system: stable HCV 1a RLuc replicon cells (genotype 1a H77 replicon); type: cell-based; conditions: Hepatitis C virus
# [5] = test system: stable HCV 2a JFH-1 Rluc replicon cells (L31 present in NS5A); type: cell-based; conditions: Hepatitis C virus
# [6] = test system: NS5A chimeric genotype 1b Con1 replicon with genotype 3a S52 strain NS5A gene; type: cell-based, HCV; conditions: Hepatitis C virus
# Method in brief: as §1
# [7] = test system: NS5A chimeric genotype 1b Con1 replicon with genotype 4a ED43 strain NS5A gene; type: cell-based, HCV; conditions: Hepatitis C virus
# [8] = test system: 1a Pi-Rluc replicon with Q30R in genotype 1a NS5A; type: cell-based, HCV; conditions: Hepatitis C virus
# Method in brief: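 Renilla luciferase replicon assay: 1a Pi-RLuc replicon carrying NS5A Q30R, transfected transiently into cured-51 (Huh-7-derived) cells.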
Structure (SMILES),EC50 ([1]; read-out: 2b),EC50 ([1]; read-out: 2b (t) (nM)),EC50 ([2]; read-out: 2a J6),EC50 ([2]; read-out: 2a Jb (t) (nM)),EC50 [3],EC50 ([4]; read-out: 1a),EC50 ([4]; read-out: 1a (nM)),EC50 ([5]; read-out: 2a JFH),EC50 ([5]; read-out: 2a JFH (nM)),EC50 ([1]; read-out: 2b (s) (nM)),EC50 ([2]; read-out: 2a J6 (s) (nM)),EC50 ([6]; read-out: 3a),EC50 ([6]; read-out: 3a (nM)),EC50 ([7]; read-out: 4a),EC50 ([7]; read-out: 4a (s) (nM)),EC50 ([7]; read-out: 4a (t) (nM)),EC50 ([8]; read-out: 1a Q30R),EC50 ([8]; read-out: 1a Q30R (nM))
"CCC(C)[C@H](NC(=O)OC)C(=O)N1C[C@@H](C)CC1c1ncc(-c2ccc3c(c2)COc2cc4c(ccc5nc([C@@H]6CC(COC)CN6C(=O)[C@@H](NC(=O)OC)C(C)C)[nH]c54)cc2-3)[nH]1 (stereo in doubt) [Example QC, Methyl {(2S)-1-[(2S,4S)-2-(9-{2-[(2S,4S)-1-{(2S,3R)-2-[(methoxycarbonyl)amino]-3-methylpentanoyl}-4-methylpyrrolidin-2-yl]-1H-imidazol-5-yl}-1,11-dihydroisochromeno[4′,3′:6,7]naphtho[1,2-d]imidazol-2-yl)-4-(methoxymethyl)pyrrolidin-1-yl]-3-methyl-1-oxobutan-2-yl}carbamate]",< 1 nM,0.317 nM,< 1 nM,0.157 nM,0.014 nM,< 1 nM,0.012 nM,< 1 nM,0.008 nM,–,–,–,–,–,–,–,–,–
"CCC(C)[C@H](NC(=O)OC)C(=O)N1C[C@@H](C)CC1c1ncc(-c2ccc3c(c2)COc2cc4c(ccc5nc([C@@H]6CC(COC)CN6C(=O)[C@@H](NC(=O)OC)C(C)OC)[nH]c54)cc2-3)[nH]1 (stereo in doubt) [Example QD, Methyl {(2S,3R)-1-[(2S,4S)-2-(5-{2-[(2S,4S)-1-[N-(methoxycarbonyl)-O-methyl-L-allothreonyl]-4-(methoxymethyl)pyrrolidin-2-yl]-1,11-dihydroisochromeno[4′,3′:6,7]naphtho[1,2-d]imidazol-9-yl}-1H-imidazol-2-yl)-4-methylpyrrolidin-1-yl]-3-methyl-1-oxopentan-2-yl}carbamate]",< 1 nM,0.193 nM,< 1 nM,0.103 nM,0.03 nM,< 1 nM,0.025 nM,< 1 nM,0.013 nM,–,–,–,–,–,–,–,–,–
"CCO[C@H]1C[C@@H](c2nc3ccc4cc5c(cc4c3[nH]2)OCc2cc(-c3cnc([C@@H]4CCCN4C(=O)[C@@H](NC(=O)OC)C(C)C)[nH]3)ccc2-5)N(C(=O)[C@@H](NC(=O)OC)C(C)C)C1 [Example OQ, Methyl {(2S)-1-[(2S)-2-(5-{2-[(2S,4S)-4-ethoxy-1-{(2S)-2-[(methoxycarbonyl)amino]-3-methylbutanoyl}pyrrolidin-2-yl]-1,11-dihydroisochromeno[4′,3′:6,7]naphtho[1,2-d]imidazol-9-yl}-1H-imidazol-2-yl)pyrrolidin-1-yl]-3-methyl-1-oxobutan-2-yl}carbamate]",< 1 nM,0.265 nM,< 1 nM,0.378 nM,–,< 1 nM,0.015 nM,< 1 nM,0.007 nM,0.982 nM,1.49 nM,< 1 nM,0.048 nM,< 1 nM,0.016 nM,0.02 nM,< 1 nM,0.102 nM
"CCO[C@H]1C[C@@H](c2nc3ccc4cc5c(cc4c3[nH]2)OCc2cc(-c3cnc([C@@H]4CCCN4C(=O)[C@H](NC(=O)OC)c4ccccc4)[nH]3)ccc2-5)N(C(=O)[C@@H](NC(=O)OC)C(C)C)C1 [Example OR, Methyl {(1R)-2-[(2S)-2-(5-{2-[(2S,4S)-4-ethoxy-1-{(2S)-2-[(methoxycarbonyl)amino]-3-methylbutanoyl}pyrrolidin-2-yl]-1,11-dihydroisochromeno[4′,3′:6,7]naphtho[1,2-d]imidazol-9-yl}-1H-imidazol-2-yl)pyrrolidin-1-yl]-2-oxo-1-phenylethyl}carbamate]",< 1 nM,0.037 nM,< 1 nM,0.068 nM,–,< 1 nM,0.03 nM,< 1 nM,0.011 nM,0.109 nM,0.16 nM,< 1 nM,0.031 nM,< 1 nM,0.006 nM,0.036 nM,< 1 nM,0.059 nM
"COC(=O)N[C@H](C(=O)N1C[C@@H](C)C[C@H]1c1nc2ccc3cc4c(cc3c2[nH]1)OCc1cc(-c2cnc([C@@H]3C[C@H](C)CN3C(=O)[C@H](NC(=O)OC)c3ccccc3)[nH]2)ccc1-4)C(C)C [Example PG, methyl {(1R)-2-[(2S,4S)-2-(5-{2-[(2S,4S)-1-{(2S)-2-[(methoxycarbonyl)amino]-3-methylbutanoyl}-4-methylpyrrolidin-2-yl]-1,11-dihydroisochromeno[4′,3′:6,7]naphtho[1,2-d]imidazol-9-yl}-1H-imidazol-2-yl)-4-methylpyrrolidin-1-yl]-2-oxo-1-phenylethyl}carbamate]",< 1 nM,0.027 nM,< 1 nM,0.045 nM,–,< 1 nM,0.033 nM,< 1 nM,0.018 nM,0.119 nM,0.335 nM,< 1 nM,0.05 nM,< 1 nM,0.008 nM,0.063 nM,< 1 nM,0.043 nM
"COC(=O)N[C@H](C(=O)N1[C@H](c2nc3ccc4cc5c(cc4c3[nH]2)OCc2cc(-c3cnc(C4CCCN4C(=O)[C@H](NC(=O)OC)c4ccccc4)[nH]3)ccc2-5)C[C@@H]2CCC[C@@H]21)C(C)C (stereo partly drawn) [Example PN, methyl {(1R)-2-[2-(5-{2-[(2S,3aS,6aS)-1-{(2S)-2-[(methoxycarbonyl)amino]-3-methylbutanoyl}octahydrocyclopenta[b]pyrrol-2-yl]-1,11-dihydroisochromeno[4′,3′:6,7]naphtho[1,2-d]imidazol-9-yl}-1H-imidazol-2-yl)pyrrolidin-1-yl]-2-oxo-1-phenylethyl}carbamate]",< 1 nM,0.014 nM,< 1 nM,0.027 nM,–,< 1 nM,0.015 nM,< 1 nM,0.009 nM,0.035 nM,0.277 nM,< 1 nM,0.016 nM,< 1 nM,0.02 nM,0.014 nM,< 1 nM,0.03 nM
"COC(=O)N[C@H](C(=O)N1[C@H](c2nc3ccc4cc5c(cc4c3[nH]2)OCc2cc(-c3cnc(C4CCCN4C(=O)[C@@H](NC(=O)OC)C4CCOCC4)[nH]3)ccc2-5)C[C@@H]2CCC[C@@H]21)C(C)C (stereo partly drawn) [Example PP, methyl [(1S)-2-[2-(5-{2-[(2S,3aS,6aS)-1-{(2S)-2-[(methoxycarbonyl)amino]-3-methylbutanoyl}octahydrocyclopenta[b]pyrrol-2-yl]-1,11-dihydroisochromeno[4′,3′:6,7]naphtho[1,2-d]imidazol-9-yl}-1H-imidazol-2-yl)pyrrolidin-1-yl]-2-oxo-1-(tetrahydro-2H-pyran-4-yl)ethyl]carbamate]",< 1 nM,0.038 nM,< 1 nM,0.061 nM,–,< 1 nM,0.014 nM,< 1 nM,0.011 nM,0.11 nM,0.403 nM,< 1 nM,0.019 nM,< 1 nM,0.011 nM,0.027 nM,< 1 nM,0.043 nM
"COC[C@H]1C[C@@H](c2ncc(-c3ccc4c(c3)COc3cc5c(ccc6nc([C@@H]7CC[C@H](C)N7C(=O)[C@@H](NC(=O)OC)C(C)C)[nH]c65)cc3-4)[nH]2)N(C(=O)[C@@H](NC(=O)OC)C(C)C)C1 [Example PZ, Methyl {(2S)-1-[(2S,5S)-2-(9-{2-[(2S,4S)-1-{(2S)-2-[(methoxycarbonyl)amino]-3-methylbutanoyl}-4-(methoxymethyl)pyrrolidin-2-yl]-1H-imidazol-5-yl}-1,11-dihydroisochromeno[4′,3′:6,7]naphtho[1,2-d]imidazol-2-yl)-5-methylpyrrolidin-1-yl]-3-methyl-1-oxobutan-2-yl}carbamate]",< 1 nM,0.071 nM,< 1 nM,0.175 nM,–,< 1 nM,0.009 nM,< 1 nM,0.005 nM,0.386 nM,1.71 nM,< 1 nM,–,–,0.025 nM,–,< 1 nM,0.057 nM
